Values of other authors as cited in US4127531A, “Novel hexapeptides, intermediates therefor, and compositions and methods employing said hexapeptides” (priority 1977, dated 1978).

What was measured:
rat = conditions: injected directly into the brain of the rat
[1] = system: partially purified brain opiate receptor sites

H-Tyr-Gly-Gly-Phe-Met-OH [methionine enkephalin]
analgesic activity (rat): only weak analgesic agent of short duration
binding to partially purified brain opiate receptor sites [1]: binds stereo-specifically
